Marks after values point to notes of the source that are not given here.
Columns and labels:
Format in all cases: in vivo, human
[1] = tested on: Patients with Type 2 Diabetes Insufficiently Controlled with Insulin Glargine with or without Metformin; experiment: HbA1c, randomized open-label active-controlled 3-arm 26-week study (GetGoal-Duo2)
Text: (§1) FIG. 6—Graphical study design. ^1 Insulin glargine should be injected subcutaneously once daily at dinner or breakfast time (according to patient's/investigators' preference). […] Meal used for insulin glulisine dosing should remain the same throughout the 26-week treatment period. ^4 Injection of insulin glulisine prior to breakfast, lunch and dinner.
(§2) Co-primary endpoints at 26 weeks were (1) non-inferiority (95% CI upper bound <0.4%) in HbA1c reduction with LIXI vs GLU-1 and (2) for LIXI vs GLU-3, either non-inferiority in HbA1c reduction (2a) OR superiority (one-sided α≤0.025) in body weight change (2b). FPG, PPG, IG dose, composite outcomes, AEs, and hypoglycemia were assessed.

[2] = tested on: Patients with Type 2 Diabetes Insufficiently Controlled with Insulin Glargine with or without Metformin; experiment: Fasting plasma glucose, 26-week study
Text: as §1, §2

[3] = tested on: Patients with Type 2 Diabetes Insufficiently Controlled with Insulin Glargine with or without Metformin; experiment: 2-h PPG post test meal, 26-week study; conditions: subset of mITT treated before breakfast
Experimental: as §2

[4] = tested on: Patients with Type 2 Diabetes Insufficiently Controlled with Insulin Glargine with or without Metformin; experiment: Insulin dose (insulin glargine, insulin glulisine), 26-week study
Text: as §1, §2

[5] = tested on: Patients with Type 2 Diabetes Insufficiently Controlled with Insulin Glargine with or without Metformin
[6] = Baseline (before IMP), mITT population
[7] = Week 26 (LOCF), mITT population

## Insulin Glulisine QD: insulin glulisine once daily, added to insulin glargine ± metformin (comparator arm)
[1]; ANCOVA, mITT population
  HbA1c change to Week 26, LS Mean difference (SE) of Lixisenatide vs. the labelled insulin glulisine arm: −0.05 (0.059) %
  HbA1c, Change from baseline to Week 26 (LOCF), LS Mean (SE): −0.58 (0.054) %
[1]; BL (end run-in), mITT
  HbA1c, BL (end run-in) mean ± SD: 7.7 ± 0.6%
[1]; [6]
  HbA1c, Baseline, Mean (SD): 7.72 (0.58) %
  HbA1c, Baseline, Median: 7.70%
[1]; Screening (start run-in), mITT
  HbA1c, Screening (start run-in) mean ± SD: 8.5 ± 0.7%
[1]; [7]
  HbA1c, Week 26 (LOCF), Mean (SD): 7.21 (0.79) %
  HbA1c, Week 26 (LOCF), Median: 7.10%
[1]; Week 26 (LOCF), mITT, Example 2 table
  HbA1c, Week 26 (LOCF) mean ± SD: 7.2 ± 0.8%
[1]; Week 26, mITT, Example 2 table
  HbA1c, LS mean treatment difference (lixisenatide vs the labelled arm), co-primary endpoint: −0.1^† %
  HbA1c, LS mean ± SE change from BL: −0.6 ± 0.1%
[1]; mITT population
  HbA1c, Change from baseline to Week 26 (LOCF), Mean (SD): −0.51 (0.80) %
  HbA1c, Change from baseline to Week 26 (LOCF), Median: −0.50%
[2]; ANCOVA, mITT population
  Fasting plasma glucose change to Week 26, LS Mean difference (SE) of Lixisenatide vs. the labelled insulin glulisine arm: −0.01 (0.157) mmol/L
  Fasting plasma glucose, Change from baseline to Week 26 (LOCF), LS Mean (SE): −0.21 (0.142) mmol/L
[2]; BL (end run-in), mITT
  FPG, BL (end run-in) mean ± SD: 123 ± 36 mg/dL
[2]; [6]
  Fasting plasma glucose, Baseline, Mean (SD): 6.85 (1.99) mmol/L
  Fasting plasma glucose, Baseline, Median: 6.50 mmol/L
[2]; Screening (start run-in), mITT
  FPG, Screening (start run-in) mean ± SD: 167 ± 52 mg/dL
[2]; Week 26 (LOCF), mITT
  FPG, Week 26 (LOCF) mean ± SD: 120 ± 35 mg/dL
[2]; [7]
  Fasting plasma glucose, Week 26 (LOCF), Mean (SD): 6.66 (1.94) mmol/L
  Fasting plasma glucose, Week 26 (LOCF), Median: 6.40 mmol/L
[2]; Week 26, mITT
  FPG, LS mean treatment difference (lixisenatide vs the labelled arm): 0 mg/dL
  FPG, LS mean ± SE change from BL: -4 ± 3 mg/dL
[2]; mITT population
  Fasting plasma glucose, Change from baseline to Week 26 (LOCF), Mean (SD): −0.19 (2.52) mmol/L
  Fasting plasma glucose, Change from baseline to Week 26 (LOCF), Median: -0.10 mmol/L
[3]; BL
  2-h PPG post test meal, BL (end run-in) mean ± SD: 249 ± 63 mg/dL
[3]; Week 26 (LOCF)
  2-h PPG post test meal, Week 26 (LOCF) mean ± SD: 220 ± 60 mg/dL
[3]; Week 26
  2-h PPG post test meal, LS mean treatment difference (lixisenatide vs the labelled arm): -37 mg/dL
  2-h PPG post test meal, LS mean ± SE change from BL: -28 ± 11 mg/dL
[4]; ANCOVA, mITT population
  Insulin glargine dose change to Week 26, LS Mean difference (SE) of Lixisenatide vs. the labelled insulin glulisine arm: 0.76 (1.104) U
  Insulin glargine dose, Change from baseline to Week 26 (LOCF), LS Mean (SE): −0.06 (0.999) U
[4]; BL (end run-in), mITT
  Insulin Glargine dose, BL (end run-in) mean ± SD: 65 ± 32 U/day
[4]; [6]
  Insulin glargine dose, Baseline, Mean (SD): 64.79 (32.09) U
  Insulin glargine dose, Baseline, Median: 58.00 U
[4]; Screening (start run-in), mITT
  Insulin Glargine dose, Screening (start run-in) mean ± SD: 40 ± 22 U/day
[4]; Week 26 (LOCF), mITT
  Insulin Glargine dose, Week 26 (LOCF) mean ± SD: 64 ± 36 U/day
[4]; [7]
  Insulin glargine dose, Week 26 (LOCF), Mean (SD): 63.89 (35.67) U
  Insulin glargine dose, Week 26 (LOCF), Median: 54.00 U
[4]; Week 26, mITT
  Insulin Glargine dose, LS mean + SE change from BL: −0.1 ± 1.0 U/day
  Insulin Glargine dose, LS mean treatment difference (lixisenatide vs the labelled arm): 0.8 U/day
[4]; mITT population
  Insulin glargine dose, Change from baseline to Week 26 (LOCF), Mean (SD): −0.91 (13.41) U
  Insulin glargine dose, Change from baseline to Week 26 (LOCF), Median: −1.33 U
[5]; Randomized population, HbA1c above […] at Week 12 or later
  Reason for treatment discontinuation: Lack of efficacy: 4 (1.3%) n (%)
[5]; human, in vivo
  Reason for treatment discontinuation: Adverse event: 2 (0.7%) n (%)
